Test systems include HL-60(TB) leukemia; LOX IMVI melanoma; M14 melanoma; MALME-3M melanoma; MCF7 breast; MDA-MB-231 breast; NCI-H226 lung; NCI-H522 lung; OVCAR-3 ovarian; SF-295 CNS.
Common to all, as to assay: NCI anticancer screen, dose series, 48 h

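1) Cells in 96-well plates. 2) Compound, 48 h, 5 concentrations. 3) Linear interpolation between surrounding doses. 4) Unreached endpoint = highest concentration. Here, GI50 denotes the concentration required for 50% inhibition of growth. TGI is the concentration that stops growth completely.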 Where a SMILES comes first, the peptide text is derived from it. The star is where a group is joined. Boc = CC(C)(C)OC(=O)*; nBu = CCCC*

With `CC(C)CC(N)C(=O)NC(C(=O)NC(CCCNC(=N)N)C(=O)NC(CS)C(=O)NC1CSCC(C(=O)NC(Cc2ccccc2)C(=O)NC(C(=O)NC(CCCNC(=N)N)C(=O)O)C(C)C)NC(=O)C2CCCN2C(=O)C(CCCCN)NC(=O)C2CCCN2C(=O)C2CCCN2C(=O)C(Cc2ccc(O)cc2)NC(=O)C(CO)NC(=O)C(CCCCN)NC(=O)C(C(C)O)NC(=O)C(Cc2c[nH]c3ccccc23)NC1=O)C(C)C` (stereo unspecified), the TGI in the experiment on HL-60(TB) leukemia, in the experiment on LOX IMVI melanoma, with M14 melanoma, in the experiment on MALME-3M melanoma, with MCF7 breast and with MDA-MB-231 breast was > 25 µM each time. In addition, the TGI in the experiment on NCI-H226 lung, with NCI-H522 lung, with OVCAR-3 ovarian and in the experiment with SF-295 CNS was > 25 µM throughout.
For the molecule `CN1CCC(C(O)(c2ccccc2)c2ccc(Br)cc2)CC1` (stereo unspecified), the TGI stood at 66.5 µM in the experiment with HL-60(TB) leukemia; 32.9 µM with LOX IMVI melanoma; 28.7 µM in the experiment with M14 melanoma; 27.6 µM in the experiment with MALME-3M melanoma; 64.2 µM with MCF7 breast; 48.8 µM in the experiment on MDA-MB-231 breast. In addition, the TGI is 59.5 µM in the experiment on NCI-H226 lung, 30.4 µM with NCI-H522 lung, > 100 µM with OVCAR-3 ovarian and 45.7 µM in the experiment on SF-295 CNS.
Regarding `COc1ccccc1-c1c(C#N)c(N)[nH]c(=S)c1C#N`, the TGI with HL-60(TB) leukemia, with LOX IMVI melanoma, with M14 melanoma, in the experiment with MALME-3M melanoma, in the experiment on MCF7 breast and in the experiment on MDA-MB-231 breast was > 100 µM throughout. The TGI with NCI-H226 lung, in the experiment with NCI-H522 lung, in the experiment on OVCAR-3 ovarian and with SF-295 CNS was > 100 µM in each case.
As for `COc1ccc(C2C3CCc4ccccc4C3=NN2S(=O)(=O)c2cccc(C(=O)O)c2OC)cc1` (stereo unspecified), the TGI with HL-60(TB) leukemia was > 100 µM; in the experiment with LOX IMVI melanoma it was > 100 µM; in the experiment with M14 melanoma, > 100 µM; with MALME-3M melanoma, > 100 µM; in the experiment on MCF7 breast, 6.55 µM; in the experiment on MDA-MB-231 breast, > 100 µM. Also, the TGI in the experiment on NCI-H226 lung is > 100 µM; with NCI-H522 lung it was 14.2 µM; in the experiment on OVCAR-3 ovarian it was 68.6 µM; in the experiment with SF-295 CNS it was 35.1 µM.
`Nc1nc(SCC(=O)c2ccc(Br)cc2)c2[nH]cnc2n1`: the TGI with HL-60(TB) leukemia is 63.1 µM; with LOX IMVI melanoma, > 100 µM; in the experiment with M14 melanoma, > 100 µM; in the experiment with MALME-3M melanoma, > 100 µM; in the experiment on MCF7 breast it was > 100 µM; in the experiment on MDA-MB-231 breast, > 100 µM. Moreover, the TGI with NCI-H226 lung was > 100 µM; with NCI-H522 lung, 86.5 µM; with OVCAR-3 ovarian it was > 100 µM; with SF-295 CNS, > 100 µM.
Take `O=C(Cc1nc2ccccc2[nH]c1=O)c1c[nH]c2ccccc12`: the TGI is > 100 µM with HL-60(TB) leukemia; > 100 µM with LOX IMVI melanoma; > 100 µM with M14 melanoma; > 100 µM in the experiment on MALME-3M melanoma; > 100 µM with MCF7 breast; 54.2 µM with MDA-MB-231 breast. Moreover, the TGI in the experiment on NCI-H226 lung was 31.3 µM; in the experiment on NCI-H522 lung, 50 µM; with OVCAR-3 ovarian it was 68 µM; in the experiment on SF-295 CNS it was 35 µM.
Take `COC(=O)/C=C\C(C#N)(C#N)N=Cc1ccc(OC)cc1`: the TGI came out at 5.62 µM in the experiment on HL-60(TB) leukemia; 11.4 µM in the experiment on LOX IMVI melanoma; 8.77 µM with M14 melanoma; 4.01 µM in the experiment with MALME-3M melanoma; 7.44 µM with MCF7 breast; 37.7 µM with MDA-MB-231 breast. The TGI with NCI-H226 lung is 25.3 µM; with NCI-H522 lung it was 2.26 µM; in the experiment with OVCAR-3 ovarian, 6.64 µM; in the experiment with SF-295 CNS, 53 µM.
Consider `CC1(C)OC[C@@H]([C@@]2(COC(c3ccccc3)(c3ccccc3)c3ccccc3)CC=CC(=O)O2)O1`, for which the TGI in the experiment with HL-60(TB) leukemia is 81.2 µM; with LOX IMVI melanoma, > 100 µM; in the experiment with M14 melanoma, > 100 µM; in the experiment with MALME-3M melanoma, > 100 µM; in the experiment with MCF7 breast, 54.6 µM; in the experiment with MDA-MB-231 breast it was > 100 µM. Further, the TGI in the experiment on NCI-H226 lung is > 100 µM; with NCI-H522 lung, 40.9 µM; in the experiment with OVCAR-3 ovarian, > 100 µM; in the experiment with SF-295 CNS, > 100 µM.
With `CC(Oc1ccc(Cl)cc1Cl)C(=O)NN1C(=O)CC(=O)N(c2ccccc2)C1=S` (stereo unspecified), the TGI in the experiment on HL-60(TB) leukemia is 5.73 µM; with LOX IMVI melanoma, > 100 µM; in the experiment with M14 melanoma, > 100 µM; in the experiment with MALME-3M melanoma it was > 100 µM; with MCF7 breast, > 100 µM; with MDA-MB-231 breast, > 100 µM. The TGI in the experiment with NCI-H226 lung, in the experiment with NCI-H522 lung, in the experiment on OVCAR-3 ovarian and in the experiment on SF-295 CNS was > 100 µM in each case.
As for `COC(=O)c1c(O)ccc2c1c1c(n2Cc2cc(OC)cc(OC)c2)C(=O)c2ccccc2C1=O`, the TGI with HL-60(TB) leukemia came out at 39.4 µM; in the experiment with LOX IMVI melanoma, 63.5 µM; with M14 melanoma, 26.2 µM; with MALME-3M melanoma, 22.4 µM; in the experiment on MCF7 breast it was 45.3 µM; in the experiment with MDA-MB-231 breast, 35.7 µM. Also, the TGI with NCI-H226 lung was determined as 39.3 µM; in the experiment on NCI-H522 lung, 20.9 µM; in the experiment with OVCAR-3 ovarian, 25 µM; in the experiment on SF-295 CNS, 32.7 µM.
For `C/C(C=O)=C/[C@@]1(C)O[C@@H](C)[C@@](C)(O)[C@@H]1O`, the TGI in the experiment with HL-60(TB) leukemia, with LOX IMVI melanoma, with M14 melanoma, in the experiment with MALME-3M melanoma, with MCF7 breast and in the experiment on MDA-MB-231 breast was > 100 µM in each case. The TGI with NCI-H226 lung was > 100 µM; in the experiment with NCI-H522 lung it was 35.5 µM; with OVCAR-3 ovarian, > 100 µM; in the experiment on SF-295 CNS it was > 100 µM.
With `Cc1cc(-c2nc3c(F)cccc3s2)ccc1N`, the TGI in the experiment with HL-60(TB) leukemia, in the experiment with LOX IMVI melanoma, in the experiment with M14 melanoma, in the experiment with MALME-3M melanoma, in the experiment on MCF7 breast and with MDA-MB-231 breast was > 100 µM throughout. In addition, the TGI in the experiment on NCI-H226 lung, with NCI-H522 lung, with OVCAR-3 ovarian and in the experiment with SF-295 CNS was > 100 µM each time. Further, the GI50 with NCI-H226 lung was 5.45 µM.
Regarding `CCCCOc1ccc(CC(NC(=O)OC(C)(C)C)C(=O)NC(C)C(=O)NC(Cc2ccccc2)C(=O)NCC(N)=O)cc1` (stereo unspecified) (Boc-Y(nBu)AFG-NH2; configuration not given here), the TGI in the experiment with HL-60(TB) leukemia, with LOX IMVI melanoma, with M14 melanoma, in the experiment with MALME-3M melanoma, in the experiment with MCF7 breast and in the experiment on MDA-MB-231 breast was > 100 µM in each case. For the same molecule, the TGI with NCI-H226 lung, with NCI-H522 lung, in the experiment on OVCAR-3 ovarian and in the experiment on SF-295 CNS was > 100 µM throughout.

For the origin of these results see PubChem BioAssay (NCI).
